Structures can show the parent of a compound that is named as a salt.
Tests used:
[1] = system: cardiac microtissues; test: Transcriptomic profiling (mRNA-seq) and DESeq2 differential gene expression analysis in cardiac microtissues; details: absolute log2(Fold-Change) > 1, FDR p ≤ 0.05; for number of significant differentially expressed genes, 6hr high / number of significant differentially expressed genes, 48hr high / number of significant differentially expressed genes, 72hr high: high concentration; for number of significant differentially expressed genes, 6hr low / number of significant differentially expressed genes, 48hr low / number of significant differentially expressed genes, 72hr low: low concentration
[2] = ref FDA label, cited from earlier work; for Structural cardiotoxin?: FDA label references heart failure or a decrease in left ventricular ejection fraction; for Functional cardiotoxin?: compound annotation

Compound	number of significant differentially expressed genes, 6hr high [1]	number of significant differentially expressed genes, 6hr low [1]	number of significant differentially expressed genes, 48hr high [1]	number of significant differentially expressed genes, 48hr low [1]	number of significant differentially expressed genes, 72hr high [1]	number of significant differentially expressed genes, 72hr low [1]	Structural cardiotoxin? [2]	Functional cardiotoxin? [2]
Nc1nc2c(ncn2COCCO)c(=O)[nH]1 [Acyclovir]	3	4	0	0	0	0		
CN(C)C/C=C/C(=O)Nc1cc2c(Nc3ccc(F)c(Cl)c3)ncnc2cc1O[C@H]1CCOC1 [Afatinib]							N	N
CC1(C)S[C@@H]2[C@H](NC(=O)[C@H](N)c3ccc(O)cc3)C(=O)N2[C@H]1C(=O)O [Amoxacillin]							N	N
CNC(=O)c1ccccc1Sc1ccc2c(/C=C/c3ccccn3)n[nH]c2c1 [Axitinib]							N	Y
O=C1CC2(CCCC2)CC(=O)N1CCCCN1CCN(c2ncccn2)CC1 [Buspirone HCl]	42	10	14	6	8	4	N	N
Cc1ccc(-c2cc(C(F)(F)F)nn2-c2ccc(S(N)(=O)=O)cc2)cc1 [Celecoxib]							Y	Y
Cc1cc(Nc2ncc(Cl)c(Nc3ccccc3S(=O)(=O)C(C)C)n2)c(OC(C)C)cc1C1CCNCC1 [Ceritinib]							N	Y
CN1CCN(C2=Nc3cc(Cl)ccc3Nc3ccccc32)CC1 [Clozapine]	16	2	25	4	60	1		Y
C[C@@H](Oc1cc(-c2cnn(C3CCNCC3)c2)cnc1N)c1c(Cl)ccc(F)c1Cl [Crizotinib]							N	Y
O=P1(N(CCCl)CCCl)NCCCO1 (stereo not drawn) [Cyclophosphamide]							Y	Y
Nc1ccc(S(=O)(=O)c2ccc(N)cc2)cc1 [Dapsone]							N	N
COc1cccc2c1C(=O)c1c(O)c3c(c(O)c1C2=O)C[C@@](O)(C(C)=O)C[C@@H]3O[C@H]1C[C@H](N)[C@H](O)[C@H](C)O1 [Daunorubicin]							Y	Y
C[C@@H]1C[C@H]2[C@@H]3CCC4=CC(=O)C=C[C@]4(C)[C@@]3(F)[C@@H](O)C[C@]2(C)[C@@]1(O)C(=O)CO [Dexamethasone]							N	N
COc1cccc2c1C(=O)c1c(O)c3c(c(O)c1C2=O)C[C@@](O)(C(=O)CO)C[C@@H]3O[C@H]1C[C@H](N)[C@@H](O)[C@H](C)O1 [Epirubicin]							Y	Y
COC(=O)[C@@H]1CC2=CC(=O)CC[C@]2(C)[C@@]23O[C@@H]2C[C@@]2(C)[C@@H](CC[C@@]24CCC(=O)O4)[C@H]13 [Eplerenone]							N	Y

Reference: article PMC11213733, “Computational approaches identify a transcriptomic fingerprint of drug-induced structural cardiotoxicity” (Cell Biology and Toxicology, 2024)
